Laboratory results from US11466023B2, “Combination of a Mcl-1 inhibitor and a standard of care treatment for hematologic cancers, uses and pharmaceutical compositions thereof” (LES LABORATOIRES SERVIER, priority 2017, dated 2022).
Read-outs that look alike come from different tables or passages of the source.

Legend:
EOL-1 AML cell line = test: Single agent cell viability (CellTiterGlo); assay type: cell-based; conditions: Homo sapiens, EOL1, 72 h; EOL-1, single agent, 3 days incubation, CellTiterGlo; read-out: IC50
Procedure: (§1) Cell lines were cultured at 37° C. in a humidified atmosphere containing 5% CO2 and expanded in T-150 flasks. […] In order to analyse the activity of the compounds as single agents, cells were seeded and treated with nine 2-fold serial dilutions of each compound dispensed individually directly into the cell assay plates. […] All the experiments were performed in triplicates. Luminescence was quantified on a multipurpose plate reader. Single agent IC50s were calculated using standard four-parametric curve fitting.

GDM-1 AML cell line = test: Single agent cell viability (CellTiterGlo); assay type: cell-based; conditions: Homo sapiens, 72 h; GDM-1, single agent, 3 days incubation, CellTiterGlo; read-out: IC50
Procedure: as §1

HL-60 AML cell line = test: Single agent cell viability (CellTiterGlo); assay type: cell-based; conditions: Homo sapiens, 72 h; HL-60, single agent, 3 days incubation, CellTiterGlo; read-out: IC50
Procedure: as §1

KG1 AML cell line = test: Single agent cell viability (CellTiterGlo); assay type: cell-based; conditions: 72 h; KG1, single agent, 3 days incubation, CellTiterGlo; read-out: IC50
Procedure: as §1

KG1a AML cell line = test: Single agent cell viability (CellTiterGlo); assay type: cell-based; conditions: Homo sapiens, KG-1a, 72 h; KG1a, single agent, 3 days incubation, CellTiterGlo; read-out: IC50
Procedure: as §1

Kasumi-1 AML cell line = test: Single agent cell viability (CellTiterGlo); assay type: cell-based; conditions: Homo sapiens, 72 h; Kasumi-1, single agent, 3 days incubation, CellTiterGlo; read-out: IC50
Procedure: as §1

ML-2 AML cell line = test: Single agent cell viability (CellTiterGlo); assay type: cell-based; conditions: 72 h; ML-2, single agent, 3 days incubation, CellTiterGlo; read-out: IC50
Procedure: as §1

MOLM-13 AML cell line = test: Single agent cell viability (CellTiterGlo); assay type: cell-based; conditions: Homo sapiens, 72 h; MOLM-13, single agent, 3 days incubation, CellTiterGlo; read-out: IC50
Procedure: as §1

MV4; 11 AML cell line = test: Single agent cell viability (CellTiterGlo); assay type: cell-based; conditions: Homo sapiens, 72 h; MV4; 11, single agent, 3 days incubation, CellTiterGlo; read-out: IC50
Procedure: as §1

Nomo-1 AML cell line = test: Single agent cell viability (CellTiterGlo); assay type: cell-based; conditions: Homo sapiens, 72 h; Nomo-1, single agent, 3 days incubation, CellTiterGlo; read-out: IC50
Procedure: as §1

OCI-AML3 AML cell line = test: Single agent cell viability (CellTiterGlo); assay type: cell-based; conditions: Homo sapiens, OCI-AML-3, 72 h; OCI-AML3, single agent, 3 days incubation, CellTiterGlo; read-out: IC50
Procedure: as §1

PL-21 AML cell line = test: Single agent cell viability (CellTiterGlo); assay type: cell-based; conditions: 72 h; PL-21, single agent, 3 days incubation, CellTiterGlo; read-out: IC50
Procedure: as §1

THP-1 AML cell line = test: Single agent cell viability (CellTiterGlo); assay type: cell-based; conditions: Homo sapiens, 72 h; THP-1, single agent, 3 days incubation, CellTiterGlo; read-out: IC50
Procedure: as §1

[1] = test system: mononuclear cells from AML patient samples; test: Cell viability assay (Sytox blue flow cytometry) in primary AML samples; assay type: cell-based, human; conditions: Homo sapiens, 48 h, combination at 1:1 ratio, read-out: 50% lethal concentration (LC50)
Procedure: Bone marrow samples from patients with AML were collected after informed consent in accordance with guidelines approved by The Alfred Hospital Human research ethics committee.
Mononuclear cells were isolated by density-gradient centrifugation Ficoll-Hypaque (GE Healthcare, Australia) density-gradient centrifugation and red cell lysis was performed using 0.156 M NH4Cl, 0.017 M Tris-HCl pH 7.2 as previously described (Rijal et al., Blood 2015, 125, 2815-2824). Cells were then re-suspended in phosphate-buffered saline containing 2% Fetal Bovine serum (FBS; Sigma, Australia). Mononuclear cells were then suspended in RPMI-1640 (GIBCO, Australia) medium containing penicillin and streptomycin (GIBCO) and heat inactivated fetal bovine serum 15% (Sigma). Cells were washed in phosphate-buffered saline (PBS) containing 2% FBS prior to use.
Freshly purified mononuclear cells from AML patient samples were adjusted to a concentration of 2.5×10^5/mL and 100 μL of cells aliquoted per well into 96 well plates (Sigma). Cells were then treated with idarubicin and Compound 2 over a […] concentration range from 1 nM to 10 μM for 48 hours. For combinations assays, drugs were added at a 1:1 ratio from 1 nM to 10 μM and cells were incubated at 37° C. 5% CO2. Cells were then stained with Sytox blue nucleic acid stain (Invitrogen, Australia) and fluorescence measured by flow cytometric analysis using the LSR-II Fortessa (Becton Dickinson, Australia). FACSDiva software was used for data collection, and FlowJo software for analysis. Blast cells were gated using forward and side scatter properties. Viable cells excluding Sytox blue were determined at 6 concentrations for each drug and the 50% lethal concentration (LC50, in μM) determined.

SMILES: CC(=O)[C@]1(O)Cc2c(O)c3c(c(O)c2[C@@H](O[C@H]2C[C@H](N)[C@H](O)[C@H](C)O2)C1)C(=O)c1ccccc1C3=O [Idarubicin, idarubicin]
- IC50 (EOL-1 AML cell line): 2 nM
- IC50 (GDM-1 AML cell line): 8 nM
- IC50 (HL-60 AML cell line): 2 nM
- IC50 (KG1 AML cell line): 6 nM
- IC50 (KG1a AML cell line): 10 nM
- IC50 (Kasumi-1 AML cell line): 3 nM
- IC50 (ML-2 AML cell line): 10 nM
- IC50 (MOLM-13 AML cell line): 3 nM
- IC50 (MV4; 11 AML cell line): 1 nM
- IC50 (Nomo-1 AML cell line): 28 nM
- IC50 (OCI-AML3 AML cell line): 20 nM
- IC50 (PL-21 AML cell line): 23 nM
- IC50 (THP-1 AML cell line): 24 nM
- CC50 ([1]; Patient AML 6200840, 48 hours): 384 nM
- CC50 ([1]; Patient AML AH0131936, 48 hours): 886 nM
- CC50 ([1]; Patient AML AH0465385, 48 hours): 5130 nM
- CC50 ([1]; Patient AML AH0607688, 48 hours): 593 nM
- CC50 ([1]; Patient AML AH0979006, 48 hours): 1.07 nM
- CC50 ([1]; Patient AML AH1081582, 48 hours): 184 nM
- CC50 ([1]; Patient AML AH1228742, 48 hours): 404000 nM
- CC50 ([1]; Patient AML AH6120264, 48 hours): 328 nM
- CC50 ([1]; Patient AML AH6181414_2, 48 hours): 3470 nM
- CC50 ([1]; Patient AML AH6202849, 48 hours): 2870 nM
- CC50 ([1]; Patient AML AH6208160, 48 hours): 1750 nM
- CC50 ([1]; Patient AML AH6208654, 48 hours): 308 nM
- CC50 ([1]; Patient AML AH6210946, 48 hours): 105 nM
- CC50 ([1]; Patient AML AH6214498, 48 hours): 1.11 nM
- CC50 ([1]; Patient AML AH6217528, 48 hours): 33.5 nM
- CC50 ([1]; Patient AML AH6219953, 48 hours): 4370 nM
- CC50 ([1]; Patient AML AH6220847, 48 hours): 14.4 nM
- CC50 ([1]; Patient AML AH6223646, 48 hours): 315 nM
- CC50 ([1]; Patient AML AH6224104, 48 hours): 192000 nM
- CC50 ([1]; Patient AML AH6229985, 48 hours): 1.38 nM
- CC50 ([1]; Patient AML AH6607085, 48 hours): 563 nM
- CC50 ([1]; Patient AML AH6615742, 48 hours): 2930 nM
- CC50 ([1]; Patient AML AH6627892, 48 hours): 2200 nM
